Experimental findings from patent US20250161245A1, “A MIXTURE OF UREA, BIURET AND N-CONTAINING BY-PRODUCTS CREATED DURING BIURET PRODUCTION AS A DIETARY NON-PROTEIN NITROGEN-SOURCE FOR RUMINANTS AND USES THEREOF” (Yara International ASA, priority 2022, published 2025) are described below.

The subject of this experiment is ruminal fluid. Nature of the experiment: in vitro dry and organic matter digestibility, batch culture (Example 4). The experiment is classed as cell-based, Angus crossbred steers. Conditions: 24 hours of incubation, corn silage-based diet. The procedure: The in vitro incubations were conducted on three separate days (replicates). A representative sample of digesta was collected from different places in the rumen of ruminally cannulated steers and strained through 4 layers of cheesecloth, placed in pre-warmed thermos containers, and transported to the laboratory within 30 minutes after the collection. In the laboratory, the ruminal fluid from the two steers was maintained under constant CO2-flux and was combined in equal proportions. This combined ruminal fluid was mixed with McDougall's buffer (McDougall, 1948) with and without 0.077 g/liter of 10 wt. % ammonium sulfate enriched with ^15N in relation 1:4, and it was used as an inoculum. Two bottles of 500 ml fitted with a side arm and a rubber septum were incubated per treatment. […] At the end of the 24 hours incubation, the final pH was recorded, the bottles were placed on ice to prevent further microbial fermentation and two 10-ml samples were collected and acidified by adding 20 μl of a 20 vol/vol % of H2SO4-solution and were frozen at minus 20° C. until further analysis. […]
The concentration of ammonia-N at 12 and 24 hours in the incubation fluid was measured after centrifuging at 10,000×g for 15 minutes at 4° C. using an Avanti J-E centrifuge from Beckman Coulter® Incorporated. […]

As for `NC(N)=O` [Urea, urea], the IVDMD is 45.08% and the IVOMD came to 65.38%.
